Experimental data: publication PMC3973022, “Quercetin and quercetin 3-O-glycosides from Bauhinia longifolia (Bong.) Steud. show anti-Mayaro virus activity” (Parasites & Vectors, 2014)
≈ marks a conversion by molar mass, not a printed value. Entries after “also recorded” stand apart in the source; their conditions may differ.

Legend:
Mayaro virus (MAYV) = test: microbe, parasite or virus in culture; type: cell-based; details: for IC90: Vero, 24 h, read-out: IC90 (90% inhibitory concentration of viral replication); for IC50: read-out: IC50 (50% inhibitory concentration of viral replication), MAYV MOI 0.1 in Vero cells, 24 h treatment; for anti-MAYV activity (in words): concentrations tested 0–100 μg/ml
Description: (§1) Vero cells (African green monkey kidney, ATCC CCL-81) were grown at 37°C with 5% CO2, in Dulbecco’s modified Eagle’s medium (DMEM) (Life Technologies, USA) supplemented with 5% fetal bovine serum (Cultilab, BRA), 50 IU/mL of penicillin, and 50 μg/mL of streptomycin (Sigma-Aldrich, USA). Mayaro viruses (ATCC VR-66, lineage TR 4675) were propagated in Vero cells and viral stocks in 10% glycerol were kept at -70°C. Virus titer was determined by plaque assay (described under ‘Antiviral activity assay’).
Antiviral activity was evaluated using a virus yield inhibition assay. Briefly, confluent cell monolayers grown in 24-well plates were infected with MAYV (multiplicity of infection = 0.1) for 1 hour, then rinsed with PBS and treated for 24 hours (at 37°C and 5% CO2) with different concentrations (0–100 μg/ml) of flavonoids or extracts diluted in culture medium. After treatment, culture supernatants were recovered and used for titration of extracellular infectious virus particles. For virus titration, confluent cell monolayers in 24-well plates were infected with serial dilutions of recovered supernatants for 1 hour at 37°C, 5% CO2. After inoculum removal, cells were rinsed with PBS and the monolayer was incubated with fresh medium with 2% carboxymethylcellulose (Sigma-Aldrich, USA) for 48 hours at 37°C, 5% CO2. Finally, cells were fixed with 20% formaldehyde and stained with 0.5% crystal violet in 20% ethanol, and viral plaques were counted. […] P-values < 0.05 were considered statistically significant.

[1] = Cytotoxicity by dye-uptake (neutral red) assay; details: African green monkey
Description: as §1
Briefly, confluent cultures of Vero cells in 96-well microplates were treated with culture media containing different concentrations of the substances being tested. After 24 hours, the culture medium was replaced by a solution of 50 μg/mL neutral red and the cells were incubated for 3 hours, at 37°C, 5% CO2. Cells were then fixed with 20% formaldehyde and extracted with 50% methanol and 1% acetic acid, before measurement of absorbance at λ490 nm, using a spectrophotometer, to detect neutral red incorporation by living cells.

| Compound | IC90 (Mayaro virus (MAYV); Mayaro virus) [µg/mL] | IC50 (Mayaro virus (MAYV); Mayaro virus) [µg/mL] | anti-MAYV activity (in words) (Mayaro virus (MAYV); Vero cells) | CC50 at 24 h [1] [µg/mL] | SI (Selectivity Index = CC50/IC50) (Mayaro virus (MAYV); CC50 in Vero cells / IC50 against MAYV) | inhibition at 25 µg/mL (Mayaro virus (MAYV); Mayaro virus, at 25 μg/mL, Vero cells, read-out: inhibition of MAYV replication/production) [%] |
| --- | --- | --- | --- | --- | --- | --- |
| O=c1c(OC2OCC(O)C(O)C2O)c(-c2ccc(O)c(O)c2)oc2cc(O)cc(O)c12 (stereo not drawn) [Guaijaverin, quercetin-3-O-α-arabinoside] | > 100 | > 100 | did not show significant antiviral activity; also recorded: absence of anti-MAYV activity | 795 ± 54 (≈ 1830 µM) |  |  |
| O=c1c(O)c(-c2ccc(O)c(O)c2)oc2cc(O)cc(O)c12 [Quercetin, quercetin] | 19 ± 0.7 (≈ 62.9 µM) | 10 ± 0.7 (≈ 33.1 µM) | showed significant anti-MAYV activity | 941 ± 123 (≈ 3110 µM) | 94 | > 90 |
| C[C@@H]1O[C@@H](Oc2c(-c3ccc(O)c(O)c3)oc3cc(O)cc(O)c3c2=O)[C@H](O)[C@H](O)[C@H]1O [Quercitrin, quercetin-3-O-α-rhamnoside] | > 100 | > 100 | did not show significant antiviral activity; also recorded: absence of anti-MAYV activity | 411 ± 46 (≈ 917 µM) |  |  |
| NC(=O)c1ncn([C@@H]2O[C@H](CO)[C@@H](O)[C@H]2O)n1 [Ribavirin, reference compound] | > 100 | 62 ± 4 (≈ 254 µM) |  | 523 ± 42 (≈ 2140 µM) |  |  |
